Source: the supplement of paper PMC10307832

Experiments:
Test in all cases: relative viability (nuclei count vs DMSO), 5 days (fraction); higher = more cells survive
[1] = compound: NCC(=O)Nc1ccc(-n2nc(C(F)(F)F)cc2-c2ccc3c(ccc4ccccc43)c2)cc1 + CC(=O)Nc1cccc(-n2c(=O)n(C3CC3)c(=O)c3c(Nc4ccc(I)cc4F)n(C)c(=O)c(C)c32)c1 [Trametinib] (partner 0.02 µM)
In short: (§1)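 Nuclei were stained with Hoechst during a one-step fixation (final 0.05% Triton X-100, 1% formaldehyde, 1 ug/ml Hoechst) carried out 5 days after dosing, then counted on 4× images. The cells, lung cancer lines in 1536-well plates, had been dosed by pin tool the day after seeding with one drug alone or a fixed anchor-drug dose plus five library-drug doses (not always all listed) in √10 steps. Relative viability is the nuclei count in treated wells divided by that in vehicle wells, and each value is the median of duplicate plates.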

kb NB 142-70 + Foretinib = compound: C1CSC2=C(C(=O)N1)SC3=C2C=C(C=C3)O [kb NB 142-70] + COc1cc2c(Oc3ccc(NC(=O)C4(C(=O)Nc5ccc(F)cc5)CC4)cc3F)ccnc2cc1OCCCN1CCOCC1 [Foretinib] (partner 0.25 µM)
In short: as §1

[2] = compound: C1CSC2=C(C(=O)N1)SC3=C2C=C(C=C3)O [kb NB 142-70] + CC1(C)CCC(c2ccc(Cl)cc2)=C(CN2CCN(c3ccc(C(=O)NS(=O)(=O)c4ccc(N[C@H](CCN5CCOCC5)CSc5ccccc5)c(S(=O)(=O)C(F)(F)F)c4)cc3)CC2)C1 [Navitoclax] (partner 0.5 µM)
In short: as §1

[3] = compound: NCC(=O)Nc1ccc(-n2nc(C(F)(F)F)cc2-c2ccc3c(ccc4ccccc43)c2)cc1
In short: (§2)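 Lung cancer cell lines were seeded into 1536-well plates, kept overnight at 37 °C and pinned with five library-drug doses (not always all listed) spaced by √10. After 5 days, nuclei were Hoechst-stained, imaged at 4× and counted with MetaXpress. Viability is treated-well nuclei over vehicle-well nuclei, taken as a median across plates. Plates needed control CV below 25% and at least one doubling.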

kb NB 142-70 = compound: C1CSC2=C(C(=O)N1)SC3=C2C=C(C=C3)O [kb NB 142-70]
In short: as §2

| Cell Line | relative viability ([1]; first compound 0.02 µM) | relative viability ([1]; first compound 0.06325 µM) | relative viability ([1]; first compound 0.2 µM) | relative viability ([1]; first compound 0.6325 µM) | relative viability ([1]; first compound 2 µM) | relative viability (kb NB 142-70 + Foretinib; first compound 0.1 µM) | relative viability (kb NB 142-70 + Foretinib; first compound 1 µM) | relative viability (kb NB 142-70 + Foretinib; first compound 3.162 µM) | relative viability ([2]; first compound 0.1 µM) | relative viability ([2]; first compound 1 µM) | relative viability ([2]; first compound 3.162 µM) | relative viability ([3]; 0.02 µM) | relative viability ([3]; 0.06325 µM) | relative viability ([3]; 0.2 µM) | relative viability ([3]; 0.6325 µM) | relative viability ([3]; 2 µM) | relative viability (kb NB 142-70; 0.1 µM) | relative viability (kb NB 142-70; 1 µM) | relative viability (kb NB 142-70; 3.162 µM) |
| --- | --- | --- | --- | --- | --- | --- | --- | --- | --- | --- | --- | --- | --- | --- | --- | --- | --- | --- | --- |
| NCI-H1944 | 0.429 | 0.408 | 0.437 | 0.413 | 0.403 | 0.883 | 0.934 | 0.998 | 1.07 | 1.05 | 0.973 | 0.822 | 0.973 | 0.966 | 0.965 | 0.899 | 1.08 | 0.978 | 1.07 |
| EPLC-272H | 0.269 | 0.297 | 0.305 | 0.299 | 0.303 | 0.696 | 0.725 | 0.255 | 1.26 | 1.13 | 0.584 | 0.904 | 1.2 | 0.874 | 1.01 | 0.911 | 0.988 | 0.905 | 0.447 |
| NCI-H1915 | 0.284 | 0.314 | 0.31 | 0.296 | 0.322 | 1.1 | 1.12 | 0.82 | 0.793 | 0.739 | 0.519 | 0.86 | 1.02 | 0.978 | 0.963 | 0.989 | 1.04 | 0.978 | 0.742 |
| NCI-H596 | 0.804 | 0.725 | 0.827 | 0.83 | 1.25 | 0.887 | 0.866 | 0.89 | 1 | 0.982 | 0.866 | 1.12 | 1.11 | 1.06 | 0.992 | 0.945 | 1.02 | 1.1 | 0.981 |
| NCI-H322M | 0.521 | 0.482 | 0.537 | 0.5 | 0.547 | 0.891 | 1.04 | 1.04 | 1.2 | 1.15 | 1.11 | 1.01 | 0.958 | 0.92 | 0.98 | 0.996 | 1.03 | 1 | 0.92 |
| NCI-H2228 | 0.559 | 0.593 | 0.548 | 0.572 | 0.553 | 0.956 | 0.939 | 0.543 | 0.853 | 0.992 | 0.244 | 1 | 1.04 | 1.1 | 1.03 | 0.797 | 1.04 | 1.33 | 0.699 |
| NCI-H647 | 0.535 | 0.512 | 0.591 | 0.434 | 0.49 | 1.28 | 1.28 | 1.24 | 1.16 | 1.19 | 0.842 | 0.934 | 1.03 | 1.07 | 0.943 | 0.897 | 1.01 | 1.03 | 0.99 |
| SK-MES-1 | 0.56 | 0.555 | 0.612 | 0.511 | 0.593 | 0.875 | 0.939 | 0.985 | 1.21 | 1.27 | 0.658 | 1.04 | 1.01 | 1.06 | 1.01 | 1.03 | 1.01 | 1.13 | 0.734 |
| NCI-H2170 | 0.89 | 0.91 | 0.989 | 0.884 | 0.912 | 0.996 | 1.07 | 0.953 | 0.564 | 0.674 | 0.432 | 0.985 | 0.974 | 0.967 | 0.949 | 0.997 | 0.965 | 1.02 | 0.825 |
| NCI-H2085 | 0.402 | 0.623 | 0.507 | 0.547 | 0.626 | 0.964 | 1.06 | 0.513 | 1.18 | 1.05 | 0.738 | 0.961 | 1.01 | 1.03 | 0.982 | 1.01 | 0.964 | 0.952 | 0.712 |
| SW 1573 | 0.551 | 0.436 | 0.637 | 0.565 | 0.476 | 0.892 | 0.797 | 0.605 | 0.954 | 0.878 | 0.561 | 0.94 | 1.01 | 1.03 | 0.971 | 0.877 | 1.02 | 0.84 | 0.535 |
| NCI-H727 | 0.411 | 0.372 | 0.351 | 0.346 | 0.394 | 1.06 | 0.969 | 1.15 | 0.522 | 0.397 | 0.263 | 0.858 | 1.16 | 1.02 | 0.922 | 1.09 | 1.09 | 1.13 | 1.02 |
| NCI-H441 | 0.394 | 0.436 | 0.507 | 0.523 | 0.555 | 0.939 | 1.15 | 0.459 | 0.683 | 0.369 | 0.34 | 0.977 | 1.04 | 1.28 | 0.947 | 0.956 | 0.975 | 0.967 | 0.637 |
| LOU-NH91 | 0.847 | 0.832 | 0.812 | 0.803 | 0.795 | 0.898 | 0.889 | 0.829 | 0.753 | 0.632 | 0.438 | 0.963 | 1 | 0.951 | 0.965 | 1.06 | 0.959 | 0.974 | 0.63 |
| NCI-H3122 | 0.204 | 0.245 | 0.188 | 0.232 | 0.261 | 0.956 | 0.926 | 0.942 | 0.987 | 1.04 | 0.972 | 1.01 | 1.02 | 1.01 | 1.01 | 1 | 0.962 | 0.982 | 0.969 |
| NCI-H460 | 0.19 | 0.175 | 0.165 | 0.145 | 0.18 | 0.951 | 1.07 | 0.985 | 0.978 | 1.25 | 0.305 | 0.974 | 0.995 | 1 | 0.987 | 0.976 | 1.01 | 0.99 | 0.979 |
| NCI-H1793 | 0.438 | 0.373 | 0.498 | 0.435 | 0.396 | 0.603 | 0.742 | 0.813 | 0.45 | 0.455 | 0.24 | 0.984 | 1.08 | 0.86 | 0.915 | 1.08 | 0.911 | 1.11 | 0.863 |
| NCI-H1734 | 0.686 | 0.712 | 0.667 | 0.657 | 0.7 | 0.873 | 0.738 | 0.456 | 0.794 | 0.706 | 0.431 | 0.931 | 1.06 | 0.955 | 0.966 | 0.928 | 1.04 | 0.774 | 0.517 |
| LXF-289 | 0.716 | 0.705 | 0.67 | 0.672 | 0.68 | 0.973 | 1.01 | 0.813 | 0.938 | 0.986 | 0.942 | 1.01 | 1.06 | 0.988 | 0.991 | 1.03 | 0.999 | 1.03 | 0.975 |
| H3255 | 0.642 | 0.579 | 0.592 | 0.629 | 0.674 | 0.742 | 0.946 | 1.05 | 0.498 | 0.538 | 0.55 | 0.951 | 1.01 | 0.974 | 0.866 | 1.05 | 1.01 | 0.954 | 1.02 |
| 201T | 0.692 | 0.717 | 0.747 | 0.725 | 0.696 | 1.07 | 1.17 | 1.08 | 1.22 | 1.26 | 1.17 | 0.892 | 1.01 | 0.98 | 0.989 | 1.01 | 1.01 | 0.966 | 1.02 |
| NCI-H2126 | 0.586 | 0.599 | 0.626 | 0.553 | 0.54 | 1.18 | 0.869 | 1.14 | 0.853 | 0.843 | 0.849 | 0.981 | 1.04 | 1.04 | 0.993 | 0.997 | 0.985 | 0.974 | 0.989 |
| HOP-62 | 0.395 | 0.378 | 0.378 | 0.368 | 0.336 | 1.19 | 1.18 | 1.02 | 0.994 | 1.11 | 0.968 | 1.03 | 0.997 | 0.943 | 0.928 | 1.05 | 1.03 | 1.04 | 0.911 |
| CAL-12T | 0.304 | 0.401 | 0.394 | 0.339 | 0.362 | 1.03 | 1.18 | 0.837 | 1.34 | 1.16 | 1.08 | 0.957 | 1.01 | 1.05 | 0.949 | 1.08 | 0.985 | 1.07 | 0.904 |
| NCI-H520 | 0.637 | 0.641 | 0.747 | 0.678 | 0.679 | 0.718 | 0.866 | 0.655 | 1.07 | 1.19 | 0.482 | 1.01 | 1.04 | 1.1 | 0.933 | 1.05 | 0.985 | 0.884 | 0.544 |
| NCI-H1755 | 0.782 | 0.765 | 0.737 | 0.768 | 0.71 | 0.928 | 0.867 | 0.944 | 0.996 | 1.01 | 1.05 | 1.01 | 1.03 | 1.04 | 0.966 | 0.986 | 0.988 | 0.986 | 1.02 |
| NCI-H2023 | 0.552 | 0.709 | 0.702 | 0.513 | 0.358 | 0.859 | 0.89 | 0.663 | 0.983 | 1 | 0.644 | 0.952 | 1.06 | 0.957 | 1.06 | 0.922 | 1.07 | 0.946 | 0.642 |
| NCI-H2009 | 0.265 | 0.35 | 0.316 | 0.275 | 0.301 | 1.2 | 1.22 | 0.872 | 1.13 | 1.22 | 0.889 | 0.952 | 1.02 | 1.07 | 1 | 1.05 | 1.06 | 1.07 | 0.788 |
